The values below come from patent publication US20150337351A1, “METHODS OF MICROORGANISM IMMOBILIZATION” (priority 2014, published 2015).

What all share (assay type): cell-based
The subject of assay [1] is Staphylococcus aureus (SA). Kind of assay: Clone growth of captured, MHA-immobilized cells from simulated blood, darkfield digital microscopy. As to conditions: 6 μg/mL FOX; 3 hours (0, 60, 120, 180 minutes); 35° C. On the procedure:
Simulated blood specimens were used. Simulated blood specimens were produced by spiking SA, PA, and non-target bacilli species isolates into 10 mL volumes of blood from two short-fill CPD blood bank bags. A total of 29 simulated blood samples were produced, each having a microorganism concentration of approximately 5 CFU/mL of bacterial target species, confirmed by quantitative culture. Spiked isolates used to produce the simulated blood samples included 14 Staphylococcus aureus (SA), 3 Pseudomonas aeruginosa (PA), and 12 non-target Gram-negative bacilli species. Twenty additional control samples were produced which contained no spikes. Each sample was diluted with 30 mL of modified tryptic soy broth medium to promote growth, followed by a 4-hour incubation at 35° C. Following the 4-hour incubation period, samples were centrifuged briefly. The resulting microorganism cells pellets were resuspended in an electrokinetic concentration buffer to produce 1 mL samples for introduction into the detection system. Microorganism samples comprising 20 μL aliquots were pipetted into 14 microchannel flowcells. A 5-minute low-voltage electrokinetic capture was performed to concentrate the microorganisms on to a detection surface associated with each flowcell. […] Controls included quantitative culturing, disk diffusion tests for isolate resistance phenotype, and 20 blood samples without spikes.

The subject of assay [2] is Pseudomonas aeruginosa IHMA 519749 (Paer). Briefly: Biosensor mixed species diffusion assay (immobilized cells, microscopic detection), growth of resistant strain. To be noted: for Paer growth?: MEM 4 (4 μg/mL), MHA 0.850% agar, 4 hours. The protocol:
(§1) A mixed species diffusion variation of Hodge test using a biosensor with immobilized cells and microscopic detection was performed using the same bacterial strains. Heavy suspensions of Ecol and Paer were prepared in L-histidine buffer from fresh overnight blood agar plates. Heavy suspensions were diluted in normal saline to produce 0.5 McFarland suspensions, noting the volumes of each suspension required and using the same volumes to produce 10^8 cfu/mL suspensions of each strain in L-histidine. These suspensions were further diluted to create […] and 2×10^5 cfu/mL suspensions for heavy and moderate density working samples. The working samples were then diluted 1:1 in 2 mM L-DOPA for EKC.
(§2) The strains were next introduced to a biosensor for EKC, immobilization, and detection. Paer suspensions were loaded first, placing 5 uL in the exit port side (to maintain the resistant Paer isolate in one half of each channel) of each biosensor flowcell channel to cover one half of the flowcell. Six flowcells were loaded with each concentration. EKC was performed for 5 minutes at 1.5V, and then all flowcells were washed with two aliquots of 160 μL 1 mM L-DOPA (from the entry port). Ecol suspensions were next loaded, introducing 20 μL of cells suspension from the entry port to cover the full flowcell. Six flowcells were loaded with each concentration. EKC was performed for 5 minutes at 1.5V, and all flowcells washed with 160 μL of 1/10 MHB. The manner in which the cells were introduced and captures created a site comprising Ecol cells that were distal from any Paer cells (i.e., on the entry port side of the flowcell), as well as Ecol cells that were proximal to the Paer cells (i.e., on the exit port side of the flowcell).
(§3) Antibiotic media were prepared for immobilization and inhibition testing as follows. […] An immobilization medium source plate was prepared in the detection system and maintained at 45° C. The source plate wells were loaded with 20 μL of the 10× stocks and MHB without antibiotic for growth controls. The sample cassette was placed in the detection system and maintained at 40° C. A 180 uL volume of 0.944% MHA was added to each well of the source plate and mixed, and 100 uL of pre-immobilization immobilizing medium (with an agar concentration of 0.850%) was withdrawn and introduced to a flowcell in accordance with the experimental design. The loaded biosensor was allowed to equilibrate for 5 minutes, and was then removed and cooled for 5 minutes to induce the agar immobilizing agent to change to solid phase. The flowcell ports were then sealed, and growth, imaging, and analysis were performed, with examination of each flowcell for growth of Paer, examination of the distal portion of each flowcell for growth of Ecol in the absence of Paer (distal sensitivity), and examination of the proximal portion of each flowcell for growth of Ecol in the presence of Paer (proximal resistance), indicative of a positive mixed species resistance due to diffusion of metallo-beta-lactamase.
(§4) In order to test for enzyme-mediated cross-species resistance effects, a method for was devised to test a sensitive strain, Escherichia coli ATCC 25922 (Ecol), in the presence of a resistant strain, Pseudomonas aeruginosa IHMA 519749 (Paer) in the immobilized format. The method involved first immobilizing the resistant strain on the surface of a portion of each test flowcell of the cassette (approximately half) and then immobilizing the sensitive (sentinel) strain on the surface of the full flowcell including the area containing the resistant strain. This strategy provides an internal control for treatment effects on the sentinel strain in an area far from the resistant strain along with an area where close-field effects can be observed in the same flowcell. […]

The subject of assay [3] is Escherichia coli ATCC 25922 (Ecol). Kind of assay: Biosensor mixed species diffusion assay (immobilized cells, microscopic detection), growth of sentinel strain. To be noted: for Mixed species resistance factor diffusion? / Ecol growth in distal site? / Ecol growth in proximal site?: MEM 4 (4 μg/mL); for Ecol growth in distal site?: distal from Paer; for Ecol growth in proximal site?: proximal to Paer. On the procedure: as §1, §2, §3, §4

The mark [4] stands for this setting: Flowcell 9, Ecol 10^6/Paer 10^6.
[5] abbreviates: Flowcell 10, Ecol 10^6/Paer 10^5.
[6] abbreviates: Flowcell 11, Ecol 10^5/Paer 10^6.
[7] abbreviates: Flowcell 12, Ecol 10^5/Paer 10^5.
Where [8] appears, read: Flowcell 9, Ecol 10^6/Paer 10^6, 4 hours.
Where [9] appears, read: Flowcell 10, Ecol 10^6/Paer 10^5, 4 hours.
The mark [10] stands for this setting: Flowcell 11, Ecol 10^5/Paer 10^6, 4 hours.
Setting [11] is: Flowcell 12, Ecol 10^5/Paer 10^5, 4 hours.

As for `CO[C@@]1(NC(=O)Cc2cccs2)C(=O)N2C(C(=O)O)=C(COC(N)=O)CS[C@@H]21` [FOX, cefoxitin], the “SA clone growth in immobilizing medium with antibiotic (darkfield images, FIG. 2B)” value in assay [1] is listed as “growth indicating a methicillin-resistant phenotype”.
As to `C[C@@H](O)[C@H]1C(=O)N2C(C(=O)O)=C(S[C@@H]3CN[C@H](C(=O)N(C)C)C3)[C@H](C)[C@H]12` [MEM, meropenem], the “Paer growth?” value in assay [2] (setting [4]), in assay [2] (setting [5]), in assay [2] (setting [6]) and in assay [2] (setting [7]) was “Yes” in each case. In addition, the “Paer growth morphology and rate under antibiotic vs growth control” value in assay [2] (MEM at 4 μg/mL, immobilized in MHA, proximal site) was “same morphology and growth rate as the growth control condition”. Further, the “Mixed species resistance factor diffusion?” value in assay [3] (setting [4]), in assay [3] (setting [5]), in assay [3] (setting [6]) and in assay [3] (setting [7]) was “No” each time. The “Ecol growth in distal site?” value in assay [3] (setting [8]), in assay [3] (setting [9]), in assay [3] (setting [10]) and in assay [3] (setting [11]) was “No” throughout. The “Ecol growth in proximal site?” value in assay [3] (setting [8]), in assay [3] (setting [9]), in assay [3] (setting [10]) and in assay [3] (setting [11]) was “No” in each case. Moreover, the “Ecol growth and morphology under antibiotic (time-lapse images)” value in assay [3] (MEM at 4 μg/mL, immobilized in MHA, 4 hours) is “slight growth or elongation of the single cell with later fading and in many colonies complete lysis”.
